system: L1210; assay: Cytostatic activity against mouse L1210 cells; type: functional, cell-based

Q: Which IC50 does the source give for `OC[C@H]1O[C@@H](n2cc(-c3ccsc3)nn2)[C@H](O)[C@@H]1O` here?
A: The IC50 was 182 µM.

Q: Which IC50 does the source give for `COc1ccc(-c2cn([C@@H]3O[C@H](CO)[C@@H](O)[C@H]3O)nn2)cc1` here?
A: Its IC50 is 152 µM.

Q: How did the IC50 turn out when `OCc1cn([C@@H]2O[C@H](CO)[C@@H](O)[C@H]2O)nn1` was run?
A: The IC50 was greater than 200 µM.

Q: For `OC[C@H]1O[C@@H](n2cc(-c3ccccn3)nn2)[C@H](O)[C@@H]1O`, which IC50 is on record?
A: The IC50 was 236 µM.

Q: For `CC(O)c1cn([C@@H]2O[C@H](CO)[C@@H](O)[C@H]2O)nn1` (some centres undefined), which IC50 is on record?
A: The IC50 was greater than 200 µM.

Q: `CCCCCCc1cn([C@@H]2O[C@H](CO)[C@@H](O)[C@H]2O)nn1` was tested. Which IC50 did it give?
A: The IC50 was greater than 200 µM.

Q: With `OC[C@H]1O[C@@H](n2cc(-c3ccc(F)cc3)nn2)[C@H](O)[C@@H]1O` as the compound, how does the IC50 read?
A: The IC50 was 209 µM.

Q: How did the IC50 turn out when `CCCCCCCCc1cn([C@@H]2O[C@H](CO)[C@@H](O)[C@H]2O)nn1` was run?
A: The IC50 was 56 µM.

system: MOLT-4; assay: Cytostatic activity against human Molt4/C8 cells; type: functional, cell-based

Q: Which IC50 does the source give for `OC[C@H]1O[C@@H](n2cc(-c3ccsc3)nn2)[C@H](O)[C@@H]1O` here?
A: The IC50 was 126 µM.

Q: `COc1ccc(-c2cn([C@@H]3O[C@H](CO)[C@@H](O)[C@H]3O)nn2)cc1` was tested. Which IC50 did it give?
A: The IC50 was 36 µM.

Q: With `OCc1cn([C@@H]2O[C@H](CO)[C@@H](O)[C@H]2O)nn1` as the compound, how does the IC50 read?
A: The IC50 was greater than 200 µM.

Q: For `OC[C@H]1O[C@@H](n2cc(-c3ccccn3)nn2)[C@H](O)[C@@H]1O`, which IC50 is on record?
A: Its IC50 is 170 µM.

Q: For `CC(O)c1cn([C@@H]2O[C@H](CO)[C@@H](O)[C@H]2O)nn1` (some centres undefined), which IC50 is on record?
A: The IC50 was greater than 200 µM.

Q: For `CCCCCCc1cn([C@@H]2O[C@H](CO)[C@@H](O)[C@H]2O)nn1`, which IC50 is on record?
A: Its IC50 is greater than 200 µM.

Q: Which IC50 does the source give for `OC[C@H]1O[C@@H](n2cc(-c3ccc(F)cc3)nn2)[C@H](O)[C@@H]1O` here?
A: Its IC50 is 171 µM.

Q: With `CCCCCCCCc1cn([C@@H]2O[C@H](CO)[C@@H](O)[C@H]2O)nn1` as the compound, how does the IC50 read?
A: Its IC50 is 50 µM.

system: CCRF-CEM; assay: Cytostatic activity against human CEM cells; type: functional, cell-based

Q: With `OC[C@H]1O[C@@H](n2cc(-c3ccsc3)nn2)[C@H](O)[C@@H]1O` as the compound, how does the IC50 read?
A: Its IC50 is 139 µM.

Q: `COc1ccc(-c2cn([C@@H]3O[C@H](CO)[C@@H](O)[C@H]3O)nn2)cc1` was tested. Which IC50 did it give?
A: The IC50 was 73 µM.

Q: For `OCc1cn([C@@H]2O[C@H](CO)[C@@H](O)[C@H]2O)nn1`, which IC50 is on record?
A: The IC50 was greater than 200 µM.

Q: `OC[C@H]1O[C@@H](n2cc(-c3ccccn3)nn2)[C@H](O)[C@@H]1O` was tested. Which IC50 did it give?
A: The IC50 was 245 µM.

Q: For `CC(O)c1cn([C@@H]2O[C@H](CO)[C@@H](O)[C@H]2O)nn1` (some centres undefined), which IC50 is on record?
A: The IC50 was greater than 200 µM.

Q: Which IC50 does the source give for `CCCCCCc1cn([C@@H]2O[C@H](CO)[C@@H](O)[C@H]2O)nn1` here?
A: The IC50 was greater than 200 µM.

Q: With `OC[C@H]1O[C@@H](n2cc(-c3ccc(F)cc3)nn2)[C@H](O)[C@@H]1O` as the compound, how does the IC50 read?
A: The IC50 was 217 µM.

Q: How did the IC50 turn out when `CCCCCCCCc1cn([C@@H]2O[C@H](CO)[C@@H](O)[C@H]2O)nn1` was run?
A: Its IC50 is 44 µM.
